We go through 3 compounds from patent publication US9457030B2, “Compositions and methods for the treatment of juvenile neuronal ceroid lipofuscinosis and related disorders” (BOARD OF REGENTS OF THE UNIVERSITY OF NEBRASKA, priority 2012, dated 2016).

The test system of assay [1] is astrocytes. The settings on record: cited from earlier work.
For assay [2], the system named is CLN3^Δex7/8 microglia. Put plainly: IL-1β and TNF-α production by primary microglia (ELISA). It counts as cell-based, mouse. The settings on record: 1 hour pre-treatment, then 20 μM ceramide+neuron lysates for 24 hours, CLN3 mutant microglia. On the procedure: (§1) FIG. 21. PDE-4 inhibitors attenuate IL-1β and TNF-α production in CLN3^Δex7/8 microglia. Primary microglia were isolated from the brains of CLN3 WT or CLN3 mutant mice, whereupon cells were pre-treated with various concentrations of the phosphodiesterase-4 inhibitor propentofylline (PPF) for 1 hour followed by a combination of molecules known to be elevated in the JNCL brain (20 μM ceramide+neuron lysates) for 24 hours. Conditioned medium was collected at 24 hours post-treatment and IL-1β and TNF-α expression was determined by ELISA. **, p<0.01 for WT versus CLN3 mutant microglia; #, p<0.05; ##, p<0.01; ###, p<0.001 for CLN3 mutant microglia treated with PPF versus vehicle control.
as §1, with “22.” for “21.”, “rolipram (Rol)” for “propentofylline (PPF)”, “p<0.05;” for “p<0.05; ##, p<0.01;”, “Rol” for “PPF”
FIG. 24. PDE-4 inhibitors attenuate TNF-α production in CLN3^Δex7/8 microglia. Primary microglia were isolated from the brains of CLN3 WT or CLN3 mutant mice, whereupon cells were pre-treated with various concentrations of the phosphodiesterase-4 inhibitor roflumilast (Rof) for 1 hour followed by a combination of molecules known to be elevated in the JNCL brain (20 μM ceramide+neuron lysates) for 24 hours. Conditioned medium was collected at 24 hours post-treatment and TNF-α expression was determined by ELISA. **, p<0.01 for WT versus CLN3 mutant microglia.
In these experiments, primary microglia are isolated from the brains of CLN3^Δex7/8 and WT mice^8,25-27. Microglia are exposed to previously optimized concentrations of glutamate (50 μM), ATP (5 mM), ceramide (20-100 μM), neuronal lysate (1:2 or 1:5 dilution), or LPS+ATP as a positive control (100 ng/ml and 5 mM, respectively) for 24 hours, whereupon interleukin-1β (IL-1β) and tumor necrosis factor-α (TNF-α) expression are quantitated by ELISA. These cytokines were selected for analysis because they have been directly implicated in contributing to microglia-induced neuronal cell death^14,28 and also because they intersect with oxidative pathways described herein. […] In addition, CLN3 loss is examined to determine if the loss augments caspase-1 activity, a key inflammasome component that senses oxidative stress and lysosomal damage, resulting in IL-1β cleavage and secretion by microglia^8. Here, CLN3^Δex7/8 and WT microglia are exposed to the same stimuli described above, followed by incubation with the FLICA reagent (Immunochemistry Technologies LLC), a caspase-1 substrate that emits fluorescence when cleaved by the active enzyme^29. […] Indeed, studies support this expectation because caspase-1 activity was elevated in CLN3^Δex7/8 microglia compared to WT cells (FIG. 3).
Background: ELISA stands for enzyme-linked immunosorbent assay.

The subject of assay [3] is CLN3^Δex7/8 microglia. Put plainly: Intracellular cAMP in primary microglia. It counts as cell-based, mouse. The note with it: rolipram 10 μM in FIG. 23, 24 hours post-treatment. On the procedure: FIG. 23. CLN3^Δex7/8 microglia display reduced intracellular cAMP constitutively, which is enhanced by the PDE-4 inhibitors. Primary microglia were isolated from the brains of CLN3 WT or CLN3 mutant mice, whereupon cells were pre-treated with the phosphodiesterase-4 inhibitor rolipram (Rol; 10 μM) for 1 hour followed by a combination of molecules known to be elevated in the JNCL brain (20 μM ceramide+neuron lysates) for 24 hours. Intracellular cAMP levels were determined at 24 hours post-treatment (*, p<0.05).

Molecules are shown by their SMILES. “Also recorded” adds a separate entry of the source.

For `CCCn1cnc2c1c(=O)n(CCCCC(C)=O)c(=O)n2C` [propentofylline], the “glutamate transporter expression in astrocytes” value in assay [1] was “increase glutamate transporter expression in astrocytes”. Moreover, in assay [2], the IL-1β production entry was “attenuate” and the TNF-α production result was “attenuate”. The IL-1β production result in assay [2] (listed as PPF) was “significantly reduced IL-1β release”. For the same compound, the “Intracellular cAMP levels” value in assay [3] is listed as “increased”.

Take `COc1ccc(C2CNC(=O)C2)cc1OC1CCCC1` (stereo not shown) [rolipram]: in assay [2], the IL-1β production result is “attenuate; also recorded: significantly reduced IL-1β release” and the TNF-α production result is given as “attenuate”. Also, the “Intracellular cAMP levels” value in assay [3] was “enhanced; also recorded: increased”.

As to `O=C(Nc1c(Cl)cncc1Cl)c1ccc(OC(F)F)c(OCC2CC2)c1` [roflumilast], in assay [2], the IL-1β production entry is listed as “inhibit” and the TNF-α production result was “attenuate”.
